Legend:
Type in all cases: cell-based, human
[1] = system: reconstructed epidermises from donors of 1 month of age; assay: Cell viability (MTT test) of reconstructed epidermises after product application; conditions: reconstructed epidermis from 1-month-old donors, applied for 16 hours
Protocol: (§1) Reconstructed skin models were generated using these samples. Reconstructed epidermises were thus produced with the various donors selected using the technique by Poumay et al. (Arch Dermatol Res, 296(5): 203-211, 2004). After two days of submerged culture, the reconstructed epidermises were cultured at the air/liquid interface for 5 or 9 days. For the duration of the culture, the medium was replenished every 2 to 3 days.
(§2) Epidermises were reconstructed as specified in example 1 with keratinocytes from donors of 1 month of age. The products, a cleansing cream and a moisturising lotion both containing avocado perseose, were applied on these reconstructed epidermises for 16 hours. A control was produced by applying 0.4% SDS on control reconstructed epidermis samples.
(§3) IL-8 protein was assayed in the culture supernatant using an Elisa test. The cell viability was evaluated using the MTT test. Finally, a histological analysis was conducted on tissues included in paraffin by means of haematoxylin and eosin staining.

[2] = system: reconstructed epidermises from donors of 1 month of age; assay: Histological analysis (haematoxylin and eosin) of thickness of live cell layers of treated reconstructed epidermises; conditions: histology, reconstructed epidermis from 1-month-old donors, applied for 16 hours, control = 100%, SDS at 0.4%
Protocol: as §1, §2, §3

IL-8 protein = IL-8 protein assay in culture supernatant (Elisa test) of treated reconstructed epidermises; conditions: reconstructed epidermis from 1-month-old donors, applied for 16 hours
Protocol: as §1, §2, §3

CCCCCCCCCCCCOS(=O)(=O)[O-].[Na+] [SDS]
Viability ([1]; MTT test, control = 100%, SDS at 0.4%): 2% | Effect on cell viability (in words) [1]: very significantly reduced | Thickness of live layers [2]: 58% | IL8 inflammatory molecule (IL-8 protein; Elisa in culture supernatant, control = 100%, SDS at 0.4%): 602% | Effect on IL-8 expression (in words) (IL-8 protein): significant increase
